Assay results reported in article PMC10800876, “Evaluation of proline-rich antimicrobial peptides as potential lead structures for novel antimycotics against Cryptococcus neoformans” (Frontiers in Microbiology, 2024).
Converted amounts (≈) assume the structure as drawn. Where two headings read alike, the source gives them in different places. Non-standard residues stand in square brackets, D forms with d. Residues, ends and D or L forms follow the SMILES beside them. Ac6c = NC1(C(=O)O)CCCCC1

Columns and labels:
[1] = tested on: C. neoformans KN99α (serotype A, mating type MATα); assay: microbe, parasite or virus in culture; settings: Cryptococcus neoformans
[2] = tested on: C. neoformans 1841 (serotype D); assay: microbe, parasite or virus in culture; settings: Cryptococcus neoformans
[3] = tested on: C. neoformans strains 1841, H99, and KN99α; assay: Broth microdilution assay (MIC); assay type: cell-based, Cryptococcus neoformans
[4] = tested on: C. neoformans 1841; assay: Antifungal activity assay (CFU on SAB agar); assay type: cell-based, Cryptococcus neoformans; settings: treatment 3 h, 30 °C, mean ± SD, n = 4; for cell count C. neoformans 1841, 24 h: CFU counted after 24 h; for cell count C. neoformans 1841, 48 h: CFU counted after 48 h
[5] = tested on: C. neoformans H99; assay: Antifungal activity assay (CFU on SAB agar); assay type: cell-based, Cryptococcus neoformans; settings: treatment 3 h, 30 °C, mean ± SD, n = 4; for cell count C. neoformans H99, 24 h: CFU counted after 24 h; for cell count C. neoformans H99, 48 h: CFU counted after 48 h
[6] = tested on: HepG2 and HEK293 cell lines; assay: Cytotoxicity (MTT), for both cell lines; assay type: cell-based, human
Protocol: Human embryonic kidney (HEK293) and human hepatoma (HepG2) cells were cultured in Dulbecco’s modified Eagle’s/Ham’s F-12 medium (DMEM/F-12) containing 10% (v/v) fetal bovine serum and 1% (v/v) penicillin/streptomycin. Cells (20,000 in 200 μL per well) were seeded into a 96-well plate (polystyrene F-bottom, Greiner Bio-One GmbH) and incubated for 24 h (37°C, 5% CO2). Cells were washed with PBS (100 μL) and peptide solutions (0.6 g/L in DMEM/F-12) were added. The positive control was a dilution series from 12 to 1.5% (v/v) DMSO and the negative control was 12% (v/v) PBS. After incubation (37°C, 24 h, 5% CO2), the supernatant was discarded, fresh medium (90 μL/well) and MTT (10 μL/well, 5 g/L in PBS) were added, and the plate was incubated for 4 h (37°C, 5% CO2). A solution (100 μL) of sodium dodecyl sulfate (10% (v/v)) in hydrochloric acid (10 mmol/L) was added and the plate was incubated again for 24 h (37°C, 5% CO2). Absorbance was recorded at 570 nm relative to the reference at 650 nm ([…] ™ microplate reader). All samples were corrected for the background absorbance of the medium. Relative cell viability was calculated as the ratio of absorbances recorded for treated and untreated cells ([Kolano et al., 2021]; [Brakel et al., 2022a],[b]).

[7] = tested on: C. neoformans KN99α; assay: Antifungal activity assay (CFU on SAB agar); assay type: cell-based, Cryptococcus neoformans; settings: treatment 3 h, 30 °C, mean ± SD, n = 4; for cell count C. neoformans KN99α, 24 h: CFU counted after 24 h; for cell count C. neoformans KN99α, 48 h: CFU counted after 48 h
[8] = tested on: C. neoformans H99 (serotype A); assay: microbe, parasite or virus in culture; settings: Cryptococcus neoformans
[9] = tested on: C. neoformans H99 (serotype A)
[10] = tested on: C. neoformans KN99α (serotype A, mating type MATα)
[11] = tested on: C. neoformans 1841 (serotype D)
[12] = tested on: C. neoformans strains 1841, H99, and KN99α; assay: Antifungal activity assay (CFU); assay type: cell-based, Cryptococcus neoformans; settings: peptide concentrations ≥2.5 μmol/L, no colonies visible even after 48 h
[13] = tested on: C. neoformans 1841; assay: Time-kill assay; assay type: cell-based, Cryptococcus neoformans; settings: 2.5 μmol/L, 30°C, triplicates
Protocol: The kinetic effects of the antifungal activity were determined by diluting overnight cultures to 5 × 10^4 CFU/mL with 50% SAB in phosphate buffer. Aqueous peptide solutions (20 μL) were added to the cell suspension (80 μL) to give a final peptide concentration of 2.5 μmol/L. Samples were incubated at 30°C on an orbital shaker (750 rpm, Titramax 1,000, Heidolph Instruments GmbH & Co. KG) for 24 h. Before incubation (0 min) and after 45 min, 90 min, 3 h, 6 h, and 24 h incubation, aliquots (10 μL) of samples were taken and diluted with phosphate buffer (10 mmol/L, pH 7.5) to observe countable cell colonies. Aliquots (100 μL) of the diluted cell suspensions were plated on SAB agar plates. Plates were incubated at 30°C and colonies were counted after 24 h.

[14] = tested on: C. neoformans; settings: cited from earlier work
Description: Moreover, these drugs have tremendous side effects due to their high toxicity, particularly kidney damage. In general, the dev ...

[15] = tested on: in vitro translation; settings: ref Seefeldt et al., 2016; cited from earlier work
Protocol: The putative intracellular mode of action is a very significant finding, supported by CLSM images showing fluorescence in the cytoplasmic region after incubation of C. neoformans with Cf-labeled PrAMPs (Figure 4; Supplementary Figure S3). At this point, we can only speculate about potential targets, such as the ribosomes at the endoplasmic reticulum, which is the primary target of PrAMPs in bacteria, i.e., the 70S ribosome ([Krizsan et al., 2014], [2015a],[b]; [Seefeldt et al., 2015]; [Graf et al., 2017]). […] However, ...

| Molecule | cell count C. neoformans 1841, 24 h ([4]; 0.25 µmol/L) | cell count C. neoformans 1841, 48 h ([4]; 0.25 µmol/L) | cell count C. neoformans 1841, 24 h ([4]; 2.5 µmol/L) | cell count C. neoformans 1841, 48 h ([4]; 2.5 µmol/L) | cell count C. neoformans 1841, 24 h ([4]; 25 µmol/L) | cell count C. neoformans 1841, 48 h ([4]; 25 µmol/L) | cell count C. neoformans H99, 24 h ([5]; 0.25 µmol/L) | cell count C. neoformans H99, 48 h ([5]; 0.25 µmol/L) | cell count C. neoformans H99, 24 h ([5]; 2.5 µmol/L) | cell count C. neoformans H99, 48 h ([5]; 2.5 µmol/L) | cell count C. neoformans H99, 24 h ([5]; 25 µmol/L) | cell count C. neoformans H99, 48 h ([5]; 25 µmol/L) | cell count C. neoformans KN99α, 24 h ([7]; 0.25 µmol/L) | cell count C. neoformans KN99α, 48 h ([7]; 0.25 µmol/L) | cell count C. neoformans KN99α, 24 h ([7]; 2.5 µmol/L) | cell count C. neoformans KN99α, 48 h ([7]; 2.5 µmol/L) | cell count C. neoformans KN99α, 24 h ([7]; 25 µmol/L) | cell count C. neoformans KN99α, 48 h ([7]; 25 µmol/L) | other results |
| --- | --- | --- | --- | --- | --- | --- | --- | --- | --- | --- | --- | --- | --- | --- | --- | --- | --- | --- | --- |
| C[C@@H]1[C@H](O)[C@@H](C)/C=C/C=C/C=C/C=C/C=C/C=C/C=C/[C@H](O[C@@H]2O[C@H](C)[C@@H](O)[C@H](N)[C@@H]2O)C[C@@H]2O[C@](O)(C[C@@H](O)C[C@@H](O)[C@H](O)CC[C@@H](O)C[C@@H](O)CC(=O)O[C@H]1C)C[C@H](O)[C@H]2C(=O)O [Amphotericin B, reference compound] | 1.4 ± 0.3 x 10^4 CFU/mL | 1.4 ± 0.3 x 10^4 CFU/mL | 0.0 ± 0.0 x 10^4 CFU/mL | 0.0 ± 0.0 x 10^4 CFU/mL | 0.0 ± 0.0 x 10^4 CFU/mL | 0.0 ± 0.0 x 10^4 CFU/mL | 0.9 ± 0.7 x 10^4 CFU/mL | 1.1 ± 0.7 x 10^4 CFU/mL | 0.0 ± 0.0 x 10^4 CFU/mL | 0.0 ± 0.0 x 10^4 CFU/mL | 0.0 ± 0.0 x 10^4 CFU/mL | 0.0 ± 0.0 x 10^4 CFU/mL | 2.4 ± 1.5 x 10^4 CFU/mL | 2.5 ± 1.7 x 10^4 CFU/mL | 0.1 ± 0.1 x 10^4 CFU/mL | 0.1 ± 0.1 x 10^4 CFU/mL | 0.0 ± 0.0 x 10^4 CFU/mL | 0.0 ± 0.0 x 10^4 CFU/mL | MIC ([1]; 24 h, read-out: MIC (mg/L) KN99α 24 h): 0.08 mg/L; MIC ([1]; 24 h, read-out: MIC (μmol/L) KN99α 24 h): 0.09 µmol/L; MIC ([1]; 48 h, read-out: MIC (mg/L) KN99α 48 h): 0.16 mg/L; MIC ([1]; 48 h, read-out: MIC (μmol/L) KN99α 48 h): 0.17 µmol/L; MIC ([2]; 24 h, pH 7.5, read-out: MIC (μmol/L) 1841 24 h): 0.06 to 0.23 µmol/L; MIC ([2]; 24 h, read-out: MIC (mg/L) 1841 24 h): 0.06 to 0.12 mg/L; MIC ([2]; 48 h, pH 7.5, read-out: MIC (μmol/L) 1841 48 h): 0.13 µmol/L; MIC ([2]; 48 h, read-out: MIC (mg/L) 1841 48 h): 0.12 mg/L; MIC [3]: < 0.2 µg/mL; MIC ([3]; Cryptococcus neoformans, read-out: MIC): < 0.22 µM; cytotoxicity ([6]; 125 mg/L, 24 h): strong cytotoxicity; MIC ([8]; 24 h, read-out: MIC (mg/L) H99 24 h): < 0.02 mg/L; MIC ([8]; 24 h, read-out: MIC (μmol/L) H99 24 h): < 0.02 µmol/L; MIC ([8]; 48 h, read-out: MIC (mg/L) H99 48 h): 0.04 to 0.08 mg/L; MIC ([8]; 48 h, read-out: MIC (μmol/L) H99 48 h): 0.04 to 0.09 µmol/L |
| CC(C)C[C@H](NC(=O)[C@H](Cc1ccc(O)cc1)NC(=O)[C@@H]1CCCN1C(=O)[C@H](CCCNC(=N)N)NC(=O)[C@@H]1CCCN1C(=O)[C@H](CCCCN)NC(=O)[C@H](CCCCN)NC(=O)[C@@H]1CCCN1C(=O)[C@H](CCCNC(=N)N)NC(=O)C1(N)CCCCC1)C(=O)N1CCC[C@H]1C(=O)N[C@@H](CCCNC(=N)N)C(=O)N1CCC[C@H]1C(=O)N[C@@H](CCCNC(=N)N)C(=O)N1CCC[C@H]1C(=O)N1CCC[C@H]1C(=O)N[C@@H](CCCNC(=N)N)C(=O)N1CCC[C@H]1C(=O)N[C@H](C(=O)N[C@@H](CCCNC(=N)N)C(N)=O)C(C)C [Chex1Arg20 D4K] (H-[Ac6c]RPKKPRPYLPRPRPPRPVR-NH2; N-terminus assumed) | 0.4 ± 0.0 x 10^4 CFU/mL | 2.2 ± 0.3 x 10^4 CFU/mL | 0.0 ± 0.0 x 10^4 CFU/mL | 0.0 ± 0.0 x 10^4 CFU/mL | 0.0 ± 0.0 x 10^4 CFU/mL | 0.0 ± 0.0 x 10^4 CFU/mL | 2.7 ± 0.4 x 10^4 CFU/mL | 2.9 ± 0.4 x 10^4 CFU/mL | 0.0 ± 0.0 x 10^4 CFU/mL | 0.1 ± 0.0 x 10^4 CFU/mL | 0.0 ± 0.0 x 10^4 CFU/mL | 0.0 ± 0.0 x 10^4 CFU/mL | 2.0 ± 1.2 x 10^4 CFU/mL | 2.2 ± 1.1 x 10^4 CFU/mL | 0.1 ± 0.1 x 10^4 CFU/mL | 0.1 ± 0.1 x 10^4 CFU/mL | 0.8 ± 1.3 x 10^4 CFU/mL | 0.8 ± 1.3 x 10^4 CFU/mL | MIC (μmol/L) H99 24 h ([9]; H99 (serotype A, 24 h)): 1.6 µmol/L (≈ 3.98 µg/mL); MIC (μmol/L) H99 48 h ([9]; H99 (serotype A, 48 h)): 1.6 µmol/L (≈ 3.98 µg/mL); MIC (μmol/L) KN99α 24 h ([10]; KN99α (serotype A, mating type MATα, 24 h)): 1.6 µmol/L (≈ 3.98 µg/mL); MIC (μmol/L) KN99α 48 h ([10]; KN99α (serotype A, mating type MATα, 48 h)): 1.6 µmol/L (≈ 3.98 µg/mL); MIC (μmol/L) 1841 24 h ([11]; 1841 (serotype D, 24 h, pH 7.5)): 1.6 µmol/L (≈ 3.98 µg/mL); MIC (μmol/L) 1841 48 h ([11]; 1841 (serotype D, 48 h, pH 7.5)): 1.6 µmol/L (≈ 3.98 µg/mL); MIC ([3]; strains 1841, H99, and KN99α, 24 h): 1.6 µM; peptide concentration used in cytotoxicity test relative to MIC (safety margin) [6]: 150 fold; suppression of fungi, colonies after 48 h [12]: completely suppressed the fungi; incubation time after which no viable cells were detected [13]: 45 min |
| N=C(N)NCCCCC(=O)Nc1cc(C(F)(F)F)cc(NC(=O)c2cc(C(=O)Nc3cc(C(F)(F)F)cc(NC(=O)CCCCNC(=N)N)c3O[C@@H]3CCNC3)ncn2)c1O[C@@H]1CCNC1 [brilacidin] |  |  |  |  |  |  |  |  |  |  |  |  |  |  |  |  |  |  | MIC against C. neoformans ([14]; ref Dos Reis et al., 2023): 2.5 µM (≈ 2.34 µg/mL) |
| Bac7 (1-35): mammalian PrAMP fragment, literature (RRIRPRPPRLPRPRPRPLPFPRPGPRPIPRPLPFP; Bactenecin 7; UniProt P19661 131-165, looked up, fragment) |  |  |  |  |  |  |  |  |  |  |  |  |  |  |  |  |  |  | MIC against C. neoformans ([14]; ref Benincasa et al., 2004, Conti et al., 2013): ≥ 4 µM; IC50 in eukaryotic in vitro translation system relative to the E. coli system [15]: 2.5 fold |
